Experiments:
[1] = system: db/db mice; test: Modified multiple IPGTTs in fasted db/db mice; assay type: in vivo, mouse; conditions: 0.1 mg kg^−1 single dose, IPGTT at 30 hours
[2] = system: db/db mice; test: Hypoglycemic duration test in non-fasted db/db mice; assay type: in vivo, mouse; conditions: 0.1 mg kg^−1 s.c., n = 8
[3] = system: db/db mice; test: Chronic 8 week in vivo study in db/db mice; parameters: species or system mouse; conditions: Liraglutide 0.1 mg kg^−1 s.c., 8 week treatment, blood
[4] = species not given; ref not given; cited from earlier work

SMILES: CCCCCCCCCCCCCCCC(=O)N[C@@H](CCC(=O)NCCCC[C@H](NC(=O)[C@H](C)NC(=O)[C@H](C)NC(=O)[C@H](CCC(N)=O)NC(=O)CNC(=O)[C@H](CCC(=O)O)NC(=O)[C@H](CC(C)C)NC(=O)[C@H](Cc1ccc(O)cc1)NC(=O)[C@H](CO)NC(=O)[C@H](CO)NC(=O)[C@@H](NC(=O)[C@H](CC(=O)O)NC(=O)[C@H](CO)NC(=O)[C@@H](NC(=O)[C@H](Cc1ccccc1)NC(=O)[C@@H](NC(=O)CNC(=O)[C@H](CCC(=O)O)NC(=O)[C@H](C)NC(=O)[C@@H](N)Cc1cnc[nH]1)[C@@H](C)O)[C@@H](C)O)C(C)C)C(=O)N[C@@H](CCC(=O)O)C(=O)N[C@@H](Cc1ccccc1)C(=O)N[C@H](C(=O)N[C@@H](C)C(=O)N[C@@H](Cc1c[nH]c2ccccc12)C(=O)N[C@@H](CC(C)C)C(=O)N[C@H](C(=O)N[C@@H](CCCNC(=N)N)C(=O)NCC(=O)N[C@@H](CCCNC(=N)N)C(=O)NCC(=O)O)C(C)C)[C@@H](C)CC)C(=O)O [Liraglutide]
- glucose-lowering effect at 30 hours [1]: almost ineffective
- glucose-lowering percentage by AUC0–96 h vs saline [2]: 18.9%
- ALT [3]: 45.1 ± 5.1 IU L^−1
- Cholesterol [3]: 4.1 ± 0.6 mmol/L
- HDL-cholesterol [3]: 2.6 ± 0.1 mmol/L
- LDL-cholesterol [3]: 0.8 ± 0.1 mmol/L
- Triglyceride [3]: 1.1 ± 0.2 mmol/L
- in vivo half-life [4]: ~8 h
